The first assay deals with T1, catalytic domain of the recombinant TACE protein (Homo sapiens, UniProt P78536).
T1 construct: The catalytic domain of the recombinant TACE protein was expressed and purified; made in house
T1 sequence (P78536 223-474 limits assumed): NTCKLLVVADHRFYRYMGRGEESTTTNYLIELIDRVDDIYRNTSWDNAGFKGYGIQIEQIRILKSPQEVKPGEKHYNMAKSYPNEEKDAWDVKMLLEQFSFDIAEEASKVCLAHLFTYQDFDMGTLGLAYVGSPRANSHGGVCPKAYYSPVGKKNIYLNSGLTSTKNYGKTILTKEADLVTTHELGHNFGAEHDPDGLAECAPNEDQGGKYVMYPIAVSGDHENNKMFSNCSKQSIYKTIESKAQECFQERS
Briefly: TACE FRET assay using TACE cat. In kind it is biochemical.
Details: not given
A digest of the protocol:
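Initial fluorescence rate of Abz-[sequence]-Dpa pro-TNF-α peptide cleavage (substrate from 2 mM stock) read after adding substrate to enzyme (1 ug/ml) preincubated 10 min, room temperature, with inhibitor.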
On to `CC#CCOc1ccc(S(=O)(=O)N[C@H](Cc2cn(CC3CCCCC3)c3ccccc23)C(=O)O)cc1` [Example 23, N-{[4-(but-2-ynyloxy)phenyl]sulfonyl}-1-(cyclohexylmethyl)-D-tryptophan], for which the IC50 (usually the point on the concentration scale where inhibition reaches its midpoint) came to 1710 nM. The same measure, in the same setting: the value for `CC#CCOc1ccc(S(=O)(=O)N[C@@H](Cc2c(C)n(Cc3cccc(OC)c3)c3ccc(OC)cc23)C(=O)O)cc1` [Example 190, N-{[4-(but-2-ynyloxy)phenyl]sulfonyl}-5-methoxy-1-(3-methoxybenzyl)-2-methyltryptophan] was 260 nM; that for `CC#CCOc1ccc(S(=O)(=O)N[C@@H](Cc2c(C)n(Cc3ccc(Cl)cc3)c3ccc(OC)cc23)C(=O)O)cc1` [Example 201, N-{[4-(but-2-ynyloxy)phenyl]sulfonyl}-1-(4-chlorobenzyl)-5-methoxy-2-methyltryptophan] was 290 nM.

On to `CC#CCOc1ccc(S(=O)(=O)N[C@@H](Cc2c(C)n(Cc3cccc(F)c3)c3ccc(OC)cc23)C(=O)O)cc1` [Example 198, N-{[4-(but-2-ynyloxy)phenyl]sulfonyl}-1-(3-fluorobenzyl)-5-methoxy-2-methyltryptophan], for which the IC50 was 340 nM.

Still in this assay, the particulars now being: TACE FRET assay, catalytic domain of recombinant TACE; read-out: TACE IC50.
For the molecule `CC#CCOc1ccc(S(=O)(=O)N[C@H](Cc2cn(Cc3ccc(C(F)(F)F)cc3)c3ccccc23)C(=O)O)cc1` [Example 41, N-{[4-(but-2-ynyloxy)phenyl]sulfonyl}-1-[4-(trifluoromethyl)benzyl]-D-tryptophan], the IC50 is 4400 nM.

For `CC#CCOc1ccc(S(=O)(=O)N[C@@H](Cc2c[nH]c3ccccc23)C(=O)O)cc1` [Example 2, N-{[4-(but-2-ynyloxy)phenyl]sulfonyl}-L-tryptophan], the IC50 was 8200 nM. Regarding `CC#CCOc1ccc(S(=O)(=O)N[C@H](Cc2cn(CCCCC)c3ccccc23)C(=O)O)cc1` [Example 22, N-{[4-(but-2-ynyloxy)phenyl]sulfonyl}-1-pentyl-D-tryptophan], the IC50 came to 2310 nM. On to `CC#CCOc1ccc(S(=O)(=O)N[C@H](Cc2cn(Cc3ccc(Cl)cc3)c3ccccc23)C(=O)O)cc1` [Example 42, N-{[4-(but-2-ynyloxy)phenyl]sulfonyl}-1-(4-chlorobenzyl)-D-tryptophan], for which the IC50 worked out at 3450 nM.

The assay is the same for the next values; noted with them: read-out: TACE Inhibition (%).
As to `CC#CCOc1ccc(S(=O)(=O)N[C@@H](Cc2c(C)n(Cc3ccccc3C#N)c3ccc(OC)cc23)C(=O)O)cc1` [Example 203, N-{[4-(but-2-ynyloxy)phenyl]sulfonyl}-1-(2-cyanobenzyl)-5-methoxy-2-methyltryptophan], the inhibition (as a rule, the relative decrease from the control value, in per cent) at 1 µM is 56.8%. Still for that read-out and setting: the value for `CC#CCOc1ccc(S(=O)(=O)N[C@@H](Cc2c(C)n(Cc3cccc(OC(F)(F)F)c3)c3ccc(OC)cc23)C(=O)O)cc1` [Example 194, N-{[4-(but-2-ynyloxy)phenyl]sulfonyl}-5-methoxy-2-methyl-1-[3-(trifluoromethoxy)benzyl]tryptophan] was 80.8%; that for `CC#CCOc1ccc(S(=O)(=O)N[C@@H](Cc2c(C)n(Cc3ccc(F)cc3)c3ccccc23)C(=O)O)cc1` [Example 154, N-{[4-(but-2-ynyloxy)phenyl]sulfonyl}-1-(4-fluorobenzyl)-2-methyltryptophan] was 52.7%; that for `CC#CCOc1ccc(S(=O)(=O)N[C@@H](Cc2cn(Cc3ccccc3C(F)(F)F)c3ccc(C(=O)O)cc23)C(=O)O)cc1` [Example 111, N-{[4-(but-2-ynyloxy)phenyl]sulfonyl}-5-carboxy-1-[2(trifluoromethyl)benzyl]tryptophan] was 10.7%. In the case of `CC#CCOc1ccc(S(=O)(=O)N[C@@H](Cc2cn(Cc3ccc(C(=O)O)cc3)c3ccc(C(=O)O)cc23)C(=O)O)cc1` [Example 126, N-{[4-(but-2-ynyloxy)phenyl]sulfonyl}-5-carboxy-1-(4-carboxybenzyl)tryptophan], the inhibition at 1 µM was 8.36%. In the case of `CC#CCOc1ccc(S(=O)(=O)N[C@@H](Cc2c(C)n(Cc3cccc(C(F)(F)F)c3)c3ccccc23)C(=O)O)cc1` [Example 149, N-{[4-(but-2-ynyloxy)phenyl]sulfonyl}-2-methyl-1-[3-(trifluoromethyl)benzyl]tryptophan], the inhibition at 1 µM was found to be 50.5%. With `CC#CCOc1ccc(S(=O)(=O)N[C@@H](Cc2cn(Cc3ccccc3)c3ccc(OC)cc23)C(=O)O)cc1` [Example 48, 1-benzyl-N-{[4-(but-2-ynyloxy)phenyl]sulfonyl}-5-methoxytryptophan], the inhibition at 1 µM turned out to be 37.2%.

In the case of `CC#CCOc1ccc(S(=O)(=O)N[C@@H](Cc2cn(Cc3ccccc3C#N)c3ccc(C(=O)O)cc23)C(=O)O)cc1` [Example 121, N-{[4-(but-2-ynyloxy)phenyl]sulfonyl}-5-carboxy-1-(2-cyanobenzyl)tryptophan], the inhibition at 1 µM came out at 14.8%. Regarding `CC#CCOc1ccc(S(=O)(=O)N[C@@H](Cc2cn(Cc3ccccc3C)c3ccc(Cl)cc23)C(=O)O)cc1` [Example 72, N-{[4-(but-2-ynyloxy)phenyl]sulfonyl}-5-chloro-1-(2-methylbenzyl)tryptophan], the inhibition at 1 µM was 27.5%. As to `CC#CCOc1ccc(S(=O)(=O)N[C@@H](Cc2cn(Cc3ccc(C#N)cc3)c3ccc(C(=O)O)cc23)C(=O)O)cc1` [Example 123, N-{[4-(but-2-ynyloxy)phenyl]sulfonyl}-5-carboxy-1-(4-cyanobenzyl)tryptophan], the inhibition at 1 µM was -2.56%. `CC#CCOc1ccc(S(=O)(=O)N[C@@H](Cc2c(C)n(Cc3ccccc3C#N)c3ccccc23)C(=O)O)cc1` [Example 158, N-{[4-(but-2-ynyloxy)phenyl]sulfonyl}-1-(2-cyanobenzyl)-2-methyltryptophan]: the inhibition at 1 µM was 72.1%. As for `CC#CCOc1ccc(S(=O)(=O)N[C@@H](Cc2cn(Cc3cc(OC)cc(OC)c3)c3ccc(C(=O)O)cc23)C(=O)O)cc1` [Example 110, N-{[4-(but-2-ynyloxy)phenyl]sulfonyl}-5-carboxy-1-(3,5-dimethoxybenzyl)tryptophan], the inhibition at 1 µM came out at 8.02%. For `CC#CCOc1ccc(S(=O)(=O)N[C@@H](Cc2c(C)n(Cc3ccc(C(C)C)cc3)c3ccc(OC)cc23)C(=O)O)cc1` [Example 202, N-{[4-(but-2-ynyloxy)phenyl]sulfonyl}-1-(4-isopropylbenzyl)-5-methoxy-2-methyltryptophan], the inhibition at 1 µM came out at 67%. As to `CC#CCOc1ccc(S(=O)(=O)N[C@@H](Cc2cn(CC)c3ccc(C(=O)O)cc23)C(=O)O)cc1` [Example 128, N-{[4-(but-2-ynyloxy)phenyl]sulfonyl}-5-carboxy-1-ethyltryptophan], the inhibition at 1 µM was -0.6%. `CC#CCOc1ccc(S(=O)(=O)N[C@H](Cc2cn(Cc3ccc(O)cc3)c3ccccc23)C(=O)O)cc1` [Example 214, N-{[4-(but-2-ynyloxy)phenyl]sulfonyl}-1-(4-hydroxybenzyl)-D-tryptophan]: the inhibition at 1 µM is 8.77%. Same read-out and setting: the value for `CC#CCOc1ccc(S(=O)(=O)N[C@@H](Cc2cn(Cc3cccc(C)c3)c3ccc(Cl)cc23)C(=O)O)cc1` [Example 73, N-{[4-(but-2-ynyloxy)phenyl]sulfonyl}-5-chloro-1-(3-methylbenzyl)tryptophan] was 28%; that for `CC#CCOc1ccc(S(=O)(=O)N[C@@H](Cc2c(C)n(Cc3cccc(C)c3)c3ccc(OC)cc23)C(=O)O)cc1` [Example 187, N-{[4-(but-2-ynyloxy)phenyl]sulfonyl}-5-methoxy-2-methyl-1-(3-methylbenzyl)tryptophan] was 78.8%. In the case of `CC#CCOc1ccc(S(=O)(=O)N[C@@H](Cc2c(C)n(Cc3cccc(OC)c3)c3ccccc23)C(=O)O)cc1` [Example 147, N-{[4-(but-2-ynyloxy)phenyl]sulfonyl}-1-(3-methoxybenzyl)-2-methyltryptophan], the inhibition at 1 µM was determined as 35.6%. For `CC#CCOc1ccc(S(=O)(=O)N[C@@H](Cc2c(C)n(CC(C)C)c3ccc(OC)cc23)C(=O)O)cc1` [Example 210, N-{[4-(but-2-ynyloxy)phenyl]sulfonyl}-1-isobutyl-5-methoxy-2-methyltryptophan], the inhibition at 1 µM was 66.6%.

As to `CC#CCOc1ccc(S(=O)(=O)N[C@@H](Cc2c(C)n(Cc3ccc(OC(F)(F)F)cc3)c3ccc(Cl)cc23)C(=O)O)cc1` [Example 94, N-{[4-(but-2-ynyloxy)phenyl]sulfonyl}-5-chloro-2-methyl-1-[4-(trifluoromethoxy)benzyl]tryptophan], the inhibition at 1 µM turned out to be 47.4%. For `CC#CCOc1ccc(S(=O)(=O)N[C@@H](Cc2cn(Cc3ccc4c(c3)OCO4)c3ccc(Cl)cc23)C(=O)O)cc1` [Example 83, 1-(1,3-benzodioxol-5-ylmethyl)-N-{[4-(but-2-ynyloxy)phenyl]sulfonyl}-5-chlorotryptophan], the inhibition at 1 µM was 31.1%. Take `CC#CCOc1ccc(S(=O)(=O)N[C@@H](Cc2c(C)n(CC(C)C)c3ccc(Cl)cc23)C(=O)O)cc1` [Example 101, N-{[4-(but-2-ynyloxy)phenyl]sulfonyl}-5-chloro-1-isobutyl-2-methyltryptophan]: the inhibition at 1 µM was determined as 68.5%. Turning to `CC#CCOc1ccc(S(=O)(=O)N[C@@H](Cc2cn(Cc3cccc(C#N)c3)c3ccc(C(=O)O)cc23)C(=O)O)cc1` [Example 122, N-{[4-(but-2-ynyloxy)phenyl]sulfonyl}-5-carboxy-1-(3-cyanobenzyl)tryptophan], the inhibition at 1 µM is -0.34%.

With `CC#CCOc1ccc(S(=O)(=O)N[C@@H](Cc2cn(C)c3ccc(C(=O)O)cc23)C(=O)O)cc1` [Example 127, N-{[4-(but-2-ynyloxy)phenyl]sulfonyl}-5-carboxy-1-methyltryptophan], the inhibition at 1 µM was -3.22%. As for `CC#CCOc1ccc(S(=O)(=O)N[C@@H](Cc2cn(Cc3ccc(C(F)(F)F)cc3)c3ccc(OC)cc23)C(=O)O)cc1` [Example 57, N-{[4-(but-2-ynyloxy)phenyl]sulfonyl}-5-methoxy-1-[4-(trifluoromethyl)benzyl]tryptophan], the inhibition at 1 µM turned out to be 32.1%. Same read-out and setting: the value for `CC#CCOc1ccc(S(=O)(=O)N[C@@H](Cc2cn(Cc3ccccc3F)c3ccc(Cl)cc23)C(=O)O)cc1` [Example 79, N-{[4-(but-2-ynyloxy)phenyl]sulfonyl}-5-chloro-1-(2-fluorobenzyl)tryptophan] was 8.27%.
